Measured values reported in patent US20210205382A1, “METHODS AND COMPOSITIONS FOR USING METAL ELEMENTS IN AAV GENE THERAPY” (priority 2018, published 2021).

Tests used:
[1] = tested on: HeLa cells infected with scAAV2-EGFP; assay: Transduction efficiency of scAAV2-EGFP in HeLa cells (EGFP expression, fluorescent microscopy); conditions: for concentration giving maximal increase in transgene expression / maximal increase in transgene expression compared to when no essential metal element was added: HeLa, scAAV2-EGFP, 200 vgs per cell, 48 hours after infection; for maximal increase in transgene expression compared to when no essential metal element was added: at the concentration of maximal increase; for target blood concentration determined from the concentration of greatest improvement of AAV transduction efficiency in vitro: based on FIGS. 1H, 1F, 1C, 1I; for improvement of AAV transduction efficiency: cells infected with rAAV, metal alone or in combination (FIG. 2B)
Experimental: In an initial set of experiments, HeLa cells were infected with self-complementary AAV2 (scAAV2) comprising nucleic acid encoding EGFP (scAAV2-EGFP) at a multiplicity of infection of 200 viral genomes (vgs) per cell. Thereafter, various essential metal elements were added to the cell cultures at different concentrations. Transduction efficiency was measured 48 hours after infection, by evaluating the expression of EGFP using fluorescent microscopy. Images were analyzed using ImageJ software.

[2] = tested on: HepG2 cells; assay: Factor IX expression in HepG2 cells infected with AAV3-Factor IX (Western blot); type: cell-based; conditions: rAAV3-Factor IX, 20 μg/ml, 3h post infection
Experimental: HepG2 cells, which express factor IX to a lower degree compared to other cell types, were cultured. They were then either infected with rAAV3 particles carrying nucleic acid encoding Factor IX, or infected with rAAV3 particles carrying nucleic acid encoding Factor IX and treated with 20 μg/ml of ZnCl2. When level of Factor IX expressed in the cells was measured using Western blot analysis after the cells there harvest 3h post infection.

[3] = tested on: HeLa cells; assay: Zn2+-induced cytotoxicity in HeLa cells; type: cell-based
[4] = tested on: Huh7 cells; assay: Zn2+-induced cytotoxicity in Huh7 cells (mock-transfected); type: cell-based, human
[5] = tested on: Huh7 cells; assay: Transgene expression of rAAV2-mCherry in Huh7 cells with zinc; type: cell-based, human; conditions: 15 μg/ml of Zn2+
Excerpt: (§1) Therefore, targeting ZIP14-deficient HCC tumors would be ideal for Zn2+ infusions due to their tendency to prevent zinc uptake, and therefore, increase the level of environmental Zn2+. To test this hypothesis, Huh7 cells were either mock-transfected, or transfected with a recombinant plasmid containing a CMV promoter-driven ZIP14-EGFP fusion protein, and were transduced with scAAV2-mCherry vectors under identical conditions.

[6] = tested on: Huh7 cells infected with scAAV3-EGFP; assay: Percentage of Huh7 cells transduced by scAAV3-EGFP (flow cytometry); type: cell-based, human; conditions: different concentrations, flow cytometry (FIG. 4)
Experimental: Huh7 cells were infected with self-complementary AAV3 (scAAV3) comprising nucleic acid encoding EGFP (scAAV3-EGFP). Thereafter, zinc chloride was added to the cell cultures at different concentrations. Transduction efficiency was measured by evaluating the expression of EGFP using flow cytometry.

[7] = tested on: CCK8 cells; assay: AAV2-mCherry transduction efficiency versus cell viability with varying zinc; type: cell-based; conditions: varying concentrations of zinc (FIG. 5)
Excerpt: FIG. 5 provides an overlap of AAV transduction efficiency data and cell viability data from experiments in which CCK8 cells were transduced with AAV2 comprising mCherry encoding nucleic acid and treated with varying concentrations of zinc. […] FIGS. 6, 7, and 8 show similar data for HEK293 cells, HeLa cells, and HepG2 cells.

[8] = tested on: ZIP14 over-expressing Huh7 cells; assay: Zn2+ effects in Huh7 cells over-expressing ZIP14, transduced with scAAV2-mCherry; type: cell-based, human
Excerpt: The effect of metal ion (e.g., zinc) on the transduction efficiency of AAV vectors may be due to free floating zinc, because the increase in transduction occurs when the cell has taken up zinc to the point where extracellular accumulation occurs. […] ZIP14 is a metal ion transporter that primarily transports zinc into cells.
as §1

| Compound | concentration giving maximal increase in transgene expression [1] | maximal increase in transgene expression compared to when no essential metal element was added [1] [fold] | target blood concentration determined from the concentration of greatest improvement of AAV transduction efficiency in vitro [1] [µg/mL] | improvement of AAV transduction efficiency [1] [fold] | level of Factor IX expression compared to cells not treated with metal elements [2] | concentration inducing significant cytotoxicity [3] | concentrations found to be cytotoxic ([4]; Huh7 cells) | Zn2+-induced cytotoxicity ([4]; mock-treated Huh7 cells, final concentration of 20 μg/ml) | increase in the transgene expression [5] [fold] | increase in transgene expression ([1]; HeLa cells, final concentration of 30 μg/ml) [fold] | percentage of cells transduced by the scAAV3-EGFP vector [6] | rAAV transduction efficiency versus cell viability [7] | zinc-induced improvement of rAAV transduction efficiency ([8]; Huh7 cells transfected with a ZIP14 gene) | Zn2+-induced cytotoxicity ([8]; ZIP14 over-expressing Huh7 cells, final concentration of 20 μg/ml) |
| --- | --- | --- | --- | --- | --- | --- | --- | --- | --- | --- | --- | --- | --- | --- |
| [Cl-].[Cl-].[Mg+2] [magnesium chloride] | approximately 100 μg/ml | ~2 | 100 |  |  |  |  |  |  |  |  |  |  |  |
| [Cl][Co][Cl] [cobalt chloride] | 25 µg/mL | ~2 | 20 to 30 | ~2 |  |  |  |  |  |  |  |  |  |  |
| [Cl-].[Cl-].[Zn+2] [zinc chloride] | 30 µg/mL | ~8 | 30 | ~8 | greater level of Factor IX expression | exceeding 30 μg/ml | exceeding 20 μg/ml | not mock-treated Huh7 cells, evaded Zn2+-induced cytotoxicity | ~7 | ~8 | increases with increasing concentration of zinc chloride | drop in rAAV transduction efficiency correlates with cell viability | reduction in the zinc-induced improvement of rAAV transduction efficiency | evaded Zn2+-induced cytotoxicity |
| [Cl][Ni][Cl] [nickel chloride] | 20 µg/mL | ~3 | 200 | ~2 |  |  |  |  |  |  |  |  |  |  |
